Test results: patent US20250017948A1, “CANNABINOID COMPOSITIONS FOR GASTROESOPHAGEAL DISORDERS” (THE UNITED STATES GOVERNMENT AS REPRESENTED BY THE …, priority 2021, published 2025)

What was measured:
Format in all cases: cell-based, human
HET1a = details: for effect on DCA-induced mitochondrial membrane depolarization: treated prior to and during DCA exposure, FIG. 1C-1D, combination at 1:5
Procedure: MitoProbe JC-1 Assay Kit for Flow Cytometry (cat #M34152, ThermoFisher, Massachusetts, USA) was used to measure the mitochondrial membrane potential. Depending on the experimental group, cells were pre-treated with the CBG/Phytol admixture or DMSO and incubated for 2 hours at 37° C. in a CO2 incubator. Cells were then treated with DCA with the CBG/Phytol admixture or DMSO. After treatment, cell were loaded with 2 μM of JC-1 and incubated for 15 minutes at 37° C. Cytoplasmic JC-1 monomers were detected in the green spectrum (˜529 nm) while mitochondrial J-aggregates were detected in the red spectrum (˜590 nm). Results are representative of 2 and 3 independent repeats per cell line.
These concentrations of DCA are found in esophageal aspirates of patients with GERD.
Various ratios of the combination of CBG and phytol were explored to assess DCA-induced mitochondrial membrane depolarization.

HET1A cells [1] = experiment: Muse Multi-Color DNA Damage kit (ATM and H2AX activation); details: preliminary screen, FIG. 1B; cannabinoid:terpene 1:5, with DCA
Procedure: The activation of ATM and H2AX (a marker of DNA breaks) was measured using the Muse Multi-Color DNA Damage kit (MilliporeSigma, Burlington, MA, USA) according to the manufacturer's instructions. The percentage of ATM activated cells and H2AX activated cells was determined as dual activation by monitoring expression of both the ATM and γ-H2AX, using the Muse Cell Analyzer (MilliporeSigma, Burlington, MA, USA). Expression of γ-H2AX was determined by flow cytometry on an Accuri C6 flow cytometer following manufacturer protocol (MilliporeSigma, Burlington, MA, USA).
Combinations of terpenes and cannabinoids were introduced to assess the effect on DNA damage using the Muse Multicolor DNA Damage Kit (see methods for details). Based on a preliminary screen shown in FIG. 1B, it was concluded that DCA induced the highest proportion of DNA damage, along with the addition of […] (THC) containing groups, >5% vs. an untreated group.

HET1A cells [2] = experiment: Cell viability via XTT assay; details: DCA for 24 hours, then fresh media; FIG. 4A
Procedure: Cells were cultured prior to exposure to the indicated test articles. After treatment, as indicated, cells were washed and resuspended in a phenol red-free RPMI or DMEM and subsequently treated with the XTT assay (ThermoFisher, Waltham, MA, USA) or the MTS assay (Promega, Madison, WI, USA) following manufacturer protocols.
In this example, the role of CBG and Phytol on hallmarks of apoptosis resistance is described. […] Cells were pretreated with or without CBG/Phytol and then treated with DCA or a vehicle control for 24 hours. On the following day, the cells were incubated with fresh media, without DCA, and with or without CBG and/or Phytol. Cell viability was determined via XTT assay.

HET1A cells [3] = experiment: Genomic instability: new copy number events on PMDA arrays; details: daily treatment 14 days; DCA 100 μM; CBG/Phytol 1:5; baseline Day 0 genome
Procedure: The impact of phytocannabinoids on acquisition of new genomic changes over time in human esophageal cells was assessed using Axiom™ Precision Medicine Diversity Arrays (PMDA; Affymetrix). HET1a cells, plated in T-150 flasks at a seeding density of 2,500 cells per cm^2, were divided into 4 experimental groups (n=2 each): (i) DMSO-treated controls, (ii) treated with 100 μM of DCA alone, (iii) treated with CBG/Phytol admixture alone, and (iv) treated with 100 μM of DCA and CBG/Phytol admixture. DCA and/or CBG/Phytol were freshly prepared daily by dissolving in DMSO and then added to the media. These cells were cultured for 14 consecutive days. […]
Based on the examples above, it was hypothesized that increased stress-induced apoptosis along with reduced DNA damage and mitochondrial disruption may be concordant to reduced genomic instability. […] DNA from cultured and Day 0 cells was extracted and analyzed using PMDA arrays (Affymetrix). Genomic instability in cultured cells was assessed by identifying new copy number events (both deletions and amplifications), using genome of “Day 0” cells as baseline. […] Compared to control cells, DCA induced a marked (>6-fold) increase in genomic instability, as assessed from the acquisition of new copy number events over a period of […]. […]

[4] = tested on: CP-A Barrett's esophagus cells; experiment: ROS by CM-DCFDA fluorescence after low pH and bile acid cocktail (GER); details: FIG. 6F
Procedure: The cannabinoids referenced in the following examples were purchased from Cayman Chemical and brought up to a stock concentration of 100 mM in DMSO. Terpenes were purchased from Sigma Aldrich. Bile acid cocktail consisted of an equimolar mixture of glycocholate, taurocholate, glycodeoxycholate, glycochenodeoxycholate, and deoxycholate at a final concentration of 0.2 mM. This cocktail reflects the mixture of bile acids to which the distal esophagus is ordinarily exposed during gastroesophageal reflux
Combinations of cannabinoids/terpenes were tested to determine whether they protected cells in the esophagus following acute exposure to a low pH environment (pH4.5) combined with a bile acid cocktail comprised of multiple physiologically-relevant secondary bile acids, which mimics the caustic environment during gastroesophageal reflux (GER). […] The cells were either immediately analyzed for ROS via fluorescent detection of CM-DCFDA or recovered for 24 hours and analyzed for DNA damage, via γ-H2AX. […] Furthermore, the combination of CBG and β-caryophyllene was tested in the residual cells and harvested 24 h post-treatment for assessment of DNA damage to obtain the γ-H2AX fluorescence plots in FIG. 6E. […]

Structure (SMILES): CCCCCc1cc(O)c(C/C=C(\C)CCC=C(C)C)c(O)c1 [CBG, cannabigerol]
- effect on DCA-induced mitochondrial membrane depolarization (HET1a): not reproduced by either compound alone in a statistically significant manner

Structure (SMILES): C[C@H](CCC(=O)O)[C@H]1CC[C@H]2[C@@H]3CC[C@@H]4C[C@H](O)CC[C@]4(C)[C@H]3C[C@H](O)[C@]12C [DCA, deoxycholic acid]
- dose sufficient to induce membrane polarization (HET1a; acute exposure to DCA, JC-1 red/green): 100 µM
- dosing that induced severe mitochondrial membrane depolarization and cellular apoptosis (HET1a; human): above 300 μM
- proportion of DNA damage (% ATM and H2AX positive cells) vs. an untreated group (HET1A cells [1]): > 5%
- number of cells after DCA alone (HET1A cells [2]): significant reduction in number of cells by 48 hours
- increase in genomic instability (new copy number events) compared to control cells (HET1A cells [3]): > 6 fold

Structure (SMILES): C[C@H](CCC(=O)O)[C@H]1CC[C@H]2[C@@H]3[C@@H](O)C[C@@H]4C[C@H](O)CC[C@]4(C)[C@H]3CC[C@]12C [UDCA, ursodeoxycholic acid]
- mitigation of the oxidative insult of GER (CM-DCFDA fluorescence), comparison with catalase and UDCA [4]: protective effect

Structure (SMILES): C/C(=C\CO)CCC[C@H](C)CCC[C@H](C)CCCC(C)C [phytol]
- effect on DCA-induced mitochondrial membrane depolarization (HET1a): not reproduced by either compound alone in a statistically significant manner
